# Data reported in PMC9458004, “Simultaneous Determination and Pharmacokinetics Study of Three Triterpenes from Sanguisorba officinalis L. in Rats by UHPLC–MS/MS” (Molecules, 2022).
# Experiments:
# [1] = Pharmacokinetic study in rats after single oral administration of ZGI, DGE, PA or S. officinalis extract (plasma, UHPLC-MS/MS); type: in vivo, Sprague-Dawley rats; conditions: for conversion in vivo after oral administration (in words): rats, oral administration of the monomer, from plasma levels of ZGI, DGE, PA
# From the text: The UHPLC–MS/MS method was successfully used in the pharmacokinetic studies of the three analytes after single dose administration of ZGI, DGE, PA, and S. officinalis extract in rats (0.55 g/kg, equivalent to 0.03, 0.013, and 0.007 g/kg of ZGI, DGE, and PA, respectively). Based on the body surface area calculations of people and the animals and equivalent dose conversion calculations, the dosage of the rats was 0.55 g/kg.
# The experimental protocol was permitted by the Animal Ethics Committee of Harbin Medical University (Approval Code: AECHMU20150021, Approval Date: 3 June 2015) and conformed to the principles for the Care and Use of Laboratory Animals. Twenty-four male Sprague-Dawley rats (weighting 200 ± 20 g), which were provided by the Laboratory Animal Center at Harbin Medical University (Harbin, China), were used for the pharmacokinetic study. The animals were maintained in a SPF-grade room on a 12 h light/dark cycle with a controlled temperature conditions (21 ± 2 °C) and relative humidity (50 ± 5%) before the experiment. During the adaptation process, all rats were provided with standard food and purified water each morning and evening. Each rat fasted for 12 h before giving the drug and was randomly divided into one of four groups (n = 6).
# A single dose of the S. officinalis extract (0.55 g/kg, group I), ZGI (0.03 g/kg, group II), DGE ([…], group III), and PA (0.013 g/kg, group IV) was administrated to the rats. The S. officinalis extract was dissolved in water. A single dose of 0.55 g/kg of S. officinalis extract was administrated to the rats. Blood was obtained from the retinal venous plexus at 0, 0.083, 0.5, 1.0, 1.5, 2.0, 2.5, 3.0, 4.0, 6.0, 8.0, 12.0, and 24.0 h after dosing. The plasma was immediately separated by centrifugation at 8000 rpm for 4 min at −4 °C.
# The maximum concentration (Cmax) and the time to attain it (Tmax) were observed directly from the measured data. The elimination rate constant (Ke) was calculated by linear regression of the terminal points in a semi-log plot of the plasma concentration against time. The area under plasma concentration–time curve (AUC0→t) to the last measurable plasma concentration (Ct) was estimated using the linear trapezoidal rule.
# Calculate the amount of three compounds using linear regression from the standard curve. The pharmacokinetic parameters of the analytes were calculated with DAS 2.0 (Shanghai, China). All results were expressed as mean ± SD. The comparison of pharmacokinetic parameters was conducted using standard Student’s t-test. Differences between groups were assumed statistically significant for p values < 0.05.
# [2] = Stability of the three analytes in rat plasma under various storage conditions; type: in vitro ADME; conditions: storage for 2 weeks at −80 °C (b26 says −20 °C), n = 6
# [3] = as above; type: in vitro ADME; conditions: n = 6; for Stability (% RE) Post-Preparative: 12 h after sample preparation at 4 °C; for Stability (% RE) Short-Term / Stability (% RE) Three Freeze-Thaw: rat plasma; for Stability (% RE) Short-Term: 4 h at ambient temperature; for Stability (% RE) Three Freeze-Thaw: three freeze-thaw cycles at −20 °C
# Method: The stability of rat plasma under different storage conditions was determined. […] All compounds maintained steady levels for […].
# The stability of the three compounds in rat plasma, including freeze and thaw stability (three freeze-thaw cycles at −20 °C), long-term stability (storage for 2 weeks at −80 °C), room temperature stability (storage for 4 h at ambient temperature), and post-preparation stability (storage for 12 h after sample preparation at 4 °C), was tested at two QC levels with six replicates at each level. All stability testing QC samples were determined using the calibration curve of freshly prepared standard samples.
# [4] = high QC (ZGI 2080, DGE 1840, PA 840.0 ng/mL)
# [5] = low QC (ZGI 19.5, DGE 17.4, PA 7.8 ng/mL)
"Cmax ([1]; male, Sprague-Dawley, analyte ZGI in rat plasma, single oral dose of the row's substance (S. officinalis extract 0.55 g/kg, ZGI 0.03 g/kg), n = 6, mean ± SD)","Tmax ([1]; male, Sprague-Dawley, analyte ZGI in rat plasma, single oral dose of the row's substance (extract 0.55 g/kg, ZGI 0.03 g/kg), n = 6)","half-life ([1]; male, Sprague-Dawley, analyte ZGI in rat plasma, single oral dose of the row's substance (extract 0.55 g/kg, ZGI 0.03 g/kg), n = 6, read-out: t1/2 of ZGI (converted))",conversion in vivo after oral administration (in words) [1],"Stability (% RE) Long-Term [2, 4]","Stability (% RE) Long-Term [2, 5]","Stability (% RE) Post-Preparative [3, 4]","Stability (% RE) Post-Preparative [3, 5]","Stability (% RE) Short-Term [3, 4]","Stability (% RE) Short-Term [3, 5]","Stability (% RE) Three Freeze-Thaw [3, 4]","Stability (% RE) Three Freeze-Thaw [3, 5]",Structure (SMILES)
678 ± 47 ng/mL,1.4 ± 0.2 h,11 ± 1 h,may be converted into DGE and PA,3.4 % RE,15 % RE,6.4 % RE,9.2 % RE,2.4 % RE,14 % RE,2.8 % RE,6.2 % RE,"C[C@@H]1CC[C@]2(C(=O)O[C@@H]3O[C@H](CO)[C@@H](O)[C@H](O)[C@H]3O)CC[C@]3(C)C(=CC[C@@H]4[C@@]5(C)CC[C@H](O[C@@H]6OC[C@H](O)[C@H](O)[C@H]6O)C(C)(C)[C@@H]5CC[C@]43C)[C@@H]2[C@]1(C)O [ZGI, Ziyuglycoside I]"
–,–,–,cannot convert into ZGI and DGE,7.6 % RE,13 % RE,13 % RE,7.1 % RE,3.1 % RE,−5.0 % RE,5.2 % RE,12 % RE,"C[C@@H]1CC[C@]2(C(=O)O)CC[C@]3(C)C(=CC[C@@H]4[C@@]5(C)CC[C@H](O)C(C)(C)[C@@H]5CC[C@]43C)[C@@H]2[C@]1(C)O [PA, pomolic acid]"
–,–,–,may be transformed into PA,5.8 % RE,9.6 % RE,7.7 % RE,14 % RE,0.70 % RE,8.4 % RE,3.5 % RE,3.3 % RE,"CC1CCC2(C(=O)OC3OC(CO)C(O)C(O)C3O)CCC3(C)C(=CCC4C5(C)CCC(O)C(C)(C)C5CCC43C)C2C1(C)O [DGE, 3β,19α-dihydroxyurs-12-en-28-oic-acid 28-β-D-glucopyranosyl ester]"
